Each structure is given as a SMILES string.

For this test, the target named is T1, human histamine H3 receptor (Homo sapiens, UniProt Q9Y5N1).
T1 construct: host or cells: cells expressing the human H3 receptor
T1 sequence (Q9Y5N1 whole entry): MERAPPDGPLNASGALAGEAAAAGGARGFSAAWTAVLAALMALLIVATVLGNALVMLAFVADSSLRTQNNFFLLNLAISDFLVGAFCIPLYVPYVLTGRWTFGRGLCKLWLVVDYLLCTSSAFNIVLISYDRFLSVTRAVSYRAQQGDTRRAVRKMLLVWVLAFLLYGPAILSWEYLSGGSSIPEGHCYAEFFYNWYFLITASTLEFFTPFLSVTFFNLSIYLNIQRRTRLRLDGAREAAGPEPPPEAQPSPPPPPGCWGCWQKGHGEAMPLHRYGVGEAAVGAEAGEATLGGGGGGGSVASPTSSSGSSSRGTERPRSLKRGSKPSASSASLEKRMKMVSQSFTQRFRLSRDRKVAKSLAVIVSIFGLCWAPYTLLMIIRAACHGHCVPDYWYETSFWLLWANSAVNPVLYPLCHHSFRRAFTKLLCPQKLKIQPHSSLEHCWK
In words: H3 GTPγS assay (SPA method), histamine H3 in vitro assay. In kind it is biochemical. The conditions noted are these: GTPγ[35S] binding to membranes of cells expressing human H3; antagonist mode with R-γ-Me-Histamine at EC80 (30 nM); in one embodiment HCl salts tested; read-out: Potency (functional potency as indicated by IC50). The protocol:
H3 GTPγS assay (SPA method) was performed at EuroScreen (Belgium, ES-392-C) using conventional methods. Briefly, cells expressing the human histamine H3 receptor were homogenized in 15 mM Tris-HCl pH 7.5, 2 mM MgCl2, 0.3 mM EDTA, and 1 mM EGTA. Membranes were washed twice in the above tris buffer, collected by centrifugation (40,000×g, 25 min), and re-suspended in 75 mM Tris-HCl pH 7.5, 12.5 mM MgCl2, 0.3 mM EDTA, 1 mM EGTA, and 250 mM sucrose. Membranes were frozen in liquid nitrogen until use. On the day of the assay, membranes were thawed and diluted in assay buffer (20 mM HEPES pH 7.4, 100 mM NaCl, 10 μg/ml saponin, 1 mM MgCl2) to give 500 μg/ml and mixed (v/v) with GDP in assay buffer for a final GDP concentration of 10 μM and incubated on ice for at least 15 min. PVT-WGA beads (Amersham, RPNQ001) were diluted in assay buffer at 50 mg/mL and mixed with GTPγ[^35S] (Amersham, SJ1308) diluted in assay buffer to give ˜25,000 dpm/10 μL and mixed vol/vol just before the start of the reaction. The reaction was started by adding 50 μL of test compound, 20 μL of the membranes:GDP mix, 10 μL of buffer, and 20 μL of the GTPγ[^35S]:beads mix in a 96 well plate Optiplate™ (PerkinElmer, 6005299) covered with topseal (TopCount™, PerkinElmer), mixed with an orbital shaker for 2 min, incubated for 1 hour at room temperature, centrifuged for 10 min at 2000 rpm, incubated for 1 h at room temperature, and counted for 1 min in a TopCount™ reader (PerkinElmer). Dose response curves and IC50 values (concentration to inhibit the reaction by 50%) were calculated by nonlinear regression using XLfit software (IDBS).
For antagonists testing, 10 μL of a reference agonist (R-γ-Me-Histamine) instead of 10 μL buffer was added at a concentration corresponding to the EC80 (30 nM). Control ligands were R-γ-Me-Histamine (Tocris, 0569), Imetit (Sigma, I-135), Thioperamide (Tocris, 0644), and Clobenpropit (Tocris, 0754) diluted in assay buffer.
The compounds provided herein were tested in the histamine H3 in vitro assay. In one embodiment, the respective HCl salts of the compounds provided herein were prepared using standard chemical procedures and tested in the histamine H3 in vitro assay.
(In general: GTPγS is a poorly hydrolysed GTP analogue; its binding reports G protein activation.)
What is called IC50 is the concentration at which inhibition is half-maximal. As to `CC1CCC(N2CCc3nc4cc(-c5ccc(C#N)cc5)ccc4n3CC2)CC1` (mixture of isomers) [Compound 37, cis/trans-4-(3-(4-methylcyclohexyl)-2,3,4,5-tetrahydro-1H-[1,4]diazepino[1,7-a]benzimidazol-9-yl)benzonitrile], the IC50 is no less than 1 µM.

Turning to `CC1CCC(N2CCc3nc4cc(-c5ccc(C#N)cc5)ccc4n3CC2)C1` (racemic) [Compound 34, rac-cis/trans-4-(3-(3-methylcyclopentyl)-2,3,4,5-tetrahydro-1H-[1,4]diazepino[1,7-a]benzimidazol-9-yl)benzonitrile], the IC50 is no more than 0.1 µM.

In the case of `CC1CCCC1N1CCc2nc3cc(-c4ccc(C#N)cc4)ccc3n2CC1` (racemic) [Compound 35, rac-cis/trans-4-(3-(2-methylcyclopentyl)-2,3,4,5-tetrahydro-1H-[1,4]diazepino[1,7-a]benzimidazol-9-yl)benzonitrile], the IC50 was no more than 0.01 µM.

As to `c1cc2c(cc1N1CCN(C3CCOC3)CC1)nc1n2CCN(C2CCC2)CC1` (racemic) [Compound 101, rac-3-cyclobutyl-9-(4-(tetrahydrofuran-3-yl)piperazin-1-yl)-2,3,4,5-tetrahydro-1H-[1,4]diazepino[1,7-a]benzimidazole], the half-inhibitory concentration (IC50) is no more than 0.01 µM.

In the case of `NCc1ccc(-c2ccc3c(c2)nc2n3CCN(C3CCC3)CC2)cc1` [Compound 1, 3-cyclobutyl-9-(4-(aminomethyl)phenyl)-2,3,4,5-tetrahydro-1H-[1.4]diazepino[1,7-a]benzimidazole], the IC50 is no more than 0.01 µM.

In the case of `N#Cc1ccc(-c2ccc3c(c2)nc2n3CCN(C3CCC3)CC2)cc1` [Compound 2], the IC50 was no more than 0.01 µM.

Regarding `CC(=O)Nc1ccc(-c2ccc3c(c2)nc2n3CCN(C3CCC3)CC2)cc1` [Compound 3], the concentration for half-maximal inhibition (IC50) is no more than 0.01 µM.

Turning to `c1cc2cc(-c3ccc4c(c3)nc3n4CCN(C4CCC4)CC3)ccc2[nH]1` [Compound 4], the half-maximal inhibitory concentration (IC50) is no more than 0.1 µM.

Turning to `CC(C1CCC1)N1CCc2nc3cc(-c4ccc(CN)cc4)ccc3n2CC1` (stereo not drawn) [Compound 5], the IC50 is no more than 0.1 µM.

As for `CC(C1CCC1)N1CCc2nc3cc(-c4ccc(C#N)cc4)ccc3n2CC1` (stereo not drawn) [Compound 6], the half-maximal inhibitory concentration (IC50) is no more than 0.1 µM.

As for `CC(=O)Nc1ccc(-c2ccc3c(c2)nc2n3CCN(C(C)C3CCC3)CC2)cc1` (stereo not drawn) [Compound 7], the concentration for half-maximal inhibition (IC50) was no more than 1 µM.

Take `CC(=O)Nc1ccc(-c2ccc3c(c2)nc2n3CCN(C3CCN(C)CC3)CC2)cc1` [Compound 9, N-(4-(3-(1-methylpiperidin-4-yl)-2,3,4,5-tetrahydro-1H-[1,4]diazepino[1,7-a]benzimidazol-9-yl)phenyl)acetamide]: the IC50 was no more than 1 µM.

`CC(C1CCC1)N1CCc2nc3cc(-c4ccc5[nH]ccc5c4)ccc3n2CC1` (stereo not drawn) [Compound 10]: the concentration for half-maximal inhibition (IC50) is no less than 1 µM.

As to `CC(C1CCC1)N1CCc2nc3cc(Cl)ccc3n2CC1` (stereo not drawn) [Compound 11], the IC50 was no less than 1 µM.

`CN1CCC(N2CCc3nc4cc(-c5ccc6[nH]ccc6c5)ccc4n3CC2)CC1` [Compound 13]: the 50% inhibitory concentration (IC50) was no less than 1 µM.

With `Clc1ccc2c(c1)nc1n2CCN(Cc2cnc[nH]2)CC1` [Compound 15], the IC50 was no less than 1 µM.

For the compound `CN1CCC(N2CCc3nc4cc(-c5ccc(CN)cc5)ccc4n3CC2)CC1` [Compound 16], the 50% inhibitory concentration (IC50) was no less than 1 µM.

Consider `NCc1ccc(-c2ccc3c(c2)nc2n3CCN(Cc3cnc[nH]3)CC2)cc1` [Compound 17], for which the IC50 was no less than 1 µM.

As for `N#Cc1ccc(-c2ccc3c(c2)nc2n3CCN(Cc3cnc[nH]3)CC2)cc1` [Compound 18], the IC50 is no less than 1 µM.

With `CC(=O)Nc1ccc(-c2ccc3c(c2)nc2n3CCN(Cc3cnc[nH]3)CC2)cc1` [Compound 19], the IC50 is no less than 1 µM.

As to `c1ncc(CN2CCc3nc4cc(-c5ccc6[nH]ccc6c5)ccc4n3CC2)[nH]1` [Compound 20], the IC50 is no less than 1 µM.

Turning to `Brc1ccc2c(c1)nc1n2CCN(C2CCC2)CC1` [Compound 21], the half-inhibitory concentration (IC50) is no more than 1 µM.

For the compound `N#Cc1ccc(-c2ccc3c(c2)nc2n3CCN(C3CCC3)CC2)cc1F` [Compound 22], the IC50 was no more than 0.01 µM.

As to `c1cnc(-c2ccc3c(c2)nc2n3CCN(C3CCC3)CC2)cn1` [Compound 24], the half-inhibitory concentration (IC50) was no more than 0.01 µM.

As for `Cc1nn(C)c(C)c1-c1ccc2c(c1)nc1n2CCN(C2CCC2)CC1` [Compound 26], the IC50 is no more than 1 µM.

As to `N#Cc1ccc(-c2ccc3c(c2)nc2n3CCN(C3CCC3)CC2)cn1` [Compound 27, 5-(3-cyclobutyl-2,3,4,5-tetrahydro-1H-[1,4]diazepino[1,7-a]benzimidazol-9-yl)-picolinonitrile], the concentration for half-maximal inhibition (IC50) is no more than 0.01 µM.

Regarding `c1cnc2[nH]cc(-c3ccc4c(c3)nc3n4CCN(C4CCC4)CC3)c2c1` [Compound 31], the IC50 is no more than 0.01 µM.

As to `CC(C)N1CCc2nc3cc(-c4ccc(C#N)cc4)ccc3n2CC1` [Compound 32, 4-(3-isopropyl-2,3,4,5-tetrahydro-1H-[1,4]diazepino[1,7-a]benzimidazol-9-yl)benzonitrile], the 50% inhibitory concentration (IC50) is no more than 0.1 µM.

For `N#Cc1ccc(-c2ccc3c(c2)nc2n3CCN(C3CCOCC3)CC2)cc1` [Compound 38], the half-inhibitory concentration (IC50) was no more than 0.1 µM.

For `N#Cc1ccc(-c2ccc3c(c2)nc2n3CCN(CC3CC3)CC2)cc1` [Compound 39], the 50% inhibitory concentration (IC50) was no more than 0.1 µM.

As to `Brc1ccc2nc3n(c2c1)CCN(C1CCC1)CC3` [Compound 40], the IC50 is no more than 0.1 µM.

As to `N#Cc1ccc(-c2ccc3nc4n(c3c2)CCN(C2CCC2)CC4)cc1` [Compound 41], the 50% inhibitory concentration (IC50) was no more than 1 µM.

With `CC(=O)Nc1ccc(-c2ccc3nc4n(c3c2)CCN(C2CCC2)CC4)cc1` [Compound 42], the IC50 is no more than 1 µM.

Take `c1cc2cc(-c3ccc4nc5n(c4c3)CCN(C3CCC3)CC5)ccc2[nH]1` [Compound 43]: the IC50 was no more than 1 µM.

`NCc1ccc(-c2ccc3nc4n(c3c2)CCN(C2CCC2)CC4)cc1` [Compound 44]: the half-inhibitory concentration (IC50) is no more than 0.1 µM.

For the compound `c1cc2nc3n(c2cc1-c1cn[nH]c1)CCN(C1CCC1)CC3` [Compound 49, 3-cyclobutyl-9-(1H-pyrazol-4-yl)-2,3,4,5-tetrahydro-1H-[1,4]diazepino[1,7-a]benzimidazole], the half-maximal inhibitory concentration (IC50) was no more than 1 µM.

As to `CNC(=O)c1ccc(Oc2ccc3c(c2)nc2n3CCN(C3CCC3)CC2)nc1` [Compound 50, 6-(3-cyclobutyl-2,3,4,5-tetrahydro-1H-[1,4]diazepino[1,7-a]benzimidazol-9-yloxy)-N-methylnicotinamide], the IC50 is no more than 0.01 µM.

Turning to `c1cnc(Oc2ccc3c(c2)nc2n3CCN(C3CCC3)CC2)cn1` [Compound 51], the IC50 was no more than 0.1 µM.

As to `N#Cc1ccc(COc2ccc3c(c2)nc2n3CCN(C3CCC3)CC2)cc1` [Compound 53], the IC50 is no more than 0.01 µM.

On to `N#Cc1ccc2c(c1)nc1n2CCN(C2CCC2)CC1` [Compound 54], for which the concentration for half-maximal inhibition (IC50) was no more than 1 µM.

Turning to `O=C(c1ccc2c(c1)nc1n2CCN(C2CCC2)CC1)N1CCOCC1` [Compound 56], the 50% inhibitory concentration (IC50) is no more than 0.1 µM.

Regarding `CN(C)C(=O)c1ccc2c(c1)nc1n2CCN(C2CCC2)CC1` [Compound 57], the IC50 was no more than 1 µM.

For the compound `CN1CCN(C(=O)c2ccc3c(c2)nc2n3CCN(C3CCC3)CC2)CC1` [Compound 58], the IC50 was no more than 1 µM.

`O=C(c1ccc2c(c1)nc1n2CCN(C2CCC2)CC1)N1CCCC1` [Compound 60]: the IC50 is no more than 0.1 µM.

On to `N#Cc1ccc(NC(=O)c2ccc3c(c2)nc2n3CCN(C3CCC3)CC2)cc1` [Compound 61, 3-cyclobutyl-N-(4-cyanophenyl)-2,3,4,5-tetrahydro-1H-[1,4]diazepino[1,7-a]benzimidazole-9-carboxamide], for which the IC50 is no more than 0.1 µM.

Take `Fc1ccc(CNc2ccc3c(c2)nc2n3CCN(C3CCC3)CC2)cc1` [Compound 62]: the IC50 was no more than 0.1 µM.

With `N#Cc1ccc(CNc2ccc3c(c2)nc2n3CCN(C3CCC3)CC2)cc1` [Compound 63], the IC50 is no more than 0.1 µM.

For the compound `COc1ccnc(Nc2ccc3c(c2)nc2n3CCN(C3CCC3)CC2)n1` [Compound 64], the IC50 is no more than 0.1 µM.

Turning to `c1cnc(Nc2ccc3c(c2)nc2n3CCN(C3CCC3)CC2)cn1` [Compound 65, 3-cyclobutyl-N-(pyrazin-2-yl)-2,3,4,5-tetrahydro-1H-[1,4]diazepino[1,7-a]benzimidazol-9-amine], the IC50 is no more than 0.1 µM.

Consider `c1cn(-c2ccc3c(c2)nc2n3CCN(C3CCC3)CC2)cn1` [Compound 66], for which the IC50 was no more than 0.01 µM.

On to `c1ccc2c(c1)ncn2-c1ccc2c(c1)nc1n2CCN(C2CCC2)CC1` [Compound 68], for which the IC50 was no more than 0.01 µM.
